Results from paper PMC10818515, “Improvement of the Thermal Stability and Aqueous Solubility of Three Matrine Salts Assembled by the Similar Structure Salt Formers” (Pharmaceuticals, 2024).
≈ marks a conversion by molar mass, not a printed value. Where two headings read alike, the source gives them in different places.

Assay: Equilibrium solubility by the shake flask method
Assay type: physicochemical
Details: 37 °C; for Equilibrium solubility, Concentration / solubility thermodynamic at 72 h: n = 3; for solubility thermodynamic at 72 h: thermodynamic from solid, read-out: Equilibrium solubility, Concentration
Experimental: Aqueous solubility is one of the key factors affecting the bioavailability of drugs. […] Generally, the charged part has high aqueous solubility. […] The concentration of the samples was analyzed through high-performance liquid chromatography. The mobile phase consisted of methanol, acetonitrile, and phosphate buffer (15:15:70).

| Structure (SMILES) | Equilibrium solubility, Concentration (H2O (purified water)) [mg/mL] | Solubility relative to that of MAT (acetate buffer (pH 4.5)) [times] | Solubility relative to that of MAT (hydrochloric acid solution (pH 1.2)) [times] | Equilibrium solubility, Concentration (pH = 1.2 hydrochloric acid solution) [mg/mL] | Equilibrium solubility, Concentration (pH = 4.5 acetic acid buffer) [mg/mL] | Equilibrium solubility, Concentration (pH = 6.8 phosphate buffer) [mg/mL] | Solubility relative to that of MAT (phosphate buffer (pH 6.8)) [times] | Solubility relative to that of MAT (pure water) [times] | solubility thermodynamic at 72 h (aqueous buffer, pH = 4.5 acetic acid buffer) [mg/mL] | solubility thermodynamic at 72 h (aqueous buffer, pH = 6.8 phosphate buffer) [mg/mL] | solubility thermodynamic at 72 h (simulated gastric fluid, pH = 1.2 hydrochloric acid solution) [mg/mL] | solubility thermodynamic at 72 h (H2O (purified water)) [mg/mL] |
| --- | --- | --- | --- | --- | --- | --- | --- | --- | --- | --- | --- | --- |
| O=C(O)c1c(O)cccc1O.O=C1CCCC2C3CCCN4CCCC(CN12)C34 (stereo not drawn) [MAT-26DHB, MAT-2,6-dihydroxybenzoic acid] | 7.42 ± 0.45 | 0.09 | 0.14 | 13.08 ± 1.52 | 8.23 ± 0.10 | 5.71 ± 0.75 | 0.09 | 0.11 | – | – | – | – |
| O=C1CCC[C@@H]2[C@H]3CCCN4CCC[C@@H](CN12)[C@@H]34 [MAT, Matrine] | – | – | – | – | – | – | – | – | 91.8 ± 2.31 (≈ 370 mM) | 64.9 ± 1.13 (≈ 261 mM) | 90.9 ± 1.01 (≈ 366 mM) | 65.36 ± 0.53 (≈ 263 mM) |
